Data from patent US20250152555A1, “Pharmaceutical Composition for Preventing or Treating Triple-Negative Breast Cancer” (Daewoong Pharmaceutical Co., Ltd., priority 2021, published 2025).

What was measured:
[1] = test system: Hs578T (human triple negative breast cancer cell line); assay: CellTiter-Glo Luminescent Cell Viability, combined administration of docetaxel (Experimental Example 3); assay type: cell-based
Procedure: 10 μM of Fexuprazan and 1 μM of Doxorubicin were administered singly and in combination, respectively. As a comparative group, 10 μM of Vonoprazan was administered singly or in combination with Doxorubicin. At this time, 0.1% DMSO was used as a solvent for each composition. Further, 0.1% DMSO was used as a vehicle control. Each experimental group was repeated twice. Plates treated with the compound at respective concentrations were incubated in a 5% CO2 incubator at 37° C. for 48 hours. […] The reaction was performed at room temperature in a dark room for 10 minutes, and luminescence was measured using a Flexstation3 multi-mode microplate reader. The luciferase enzyme activity, representing the amount of ATP, was measured by a chemiluminescence method according to CellTiter-Glo® Luminescent Cell Viability instructions, and the inhibitory activity was calculated. […]
Hs578T (human triple negative breast cancer cell line) was incubated in a 96 well clear bottom plate and then stabilized for 24 hours. […] After incubating in a 5% CO2 incubator at 37° C. for 48 hours, the luciferase enzyme activity, representing the amount of ATP, was measured by a chemiluminescence method according to CellTiter-Glo® Luminescent Cell Viability instructions, and the inhibitory activity was calculated. The respective results were analyzed using Microsoft Excel, and significance was confirmed through an unpaired t test in Graphpad Prism software.

[2] = test system: Hs578T (human triple-negative breast cancer cell line); assay: CellTiter-Glo Luminescent Cell Viability, combined administration of Doxorubicin (Experimental Example 1); assay type: cell-based; details: for antitumor effect in combination with Doxorubicin compared to administration alone / synergistic effect with Doxorubicin: 10 μM with 1 μM Doxorubicin, Table 1 and FIG. 1; for viability at 10 µM: single agent 10.0 μM, no Doxorubicin
Procedure: (§1) In order to confirm the anticancer efficacy when Fexuprazan and Doxorubicin were administered in combination, cell proliferation was measured for Hs578T (human triple-negative breast cancer cell line) by a CellTiter-Glo® Luminescent Cell Viability (Promega, Catalog #G7571) method. The above evaluation was performed by a method in which when the luciferase enzyme was activated by ATP leaked from living cells, it reacted with a luciferin substrate, and the enzyme activity at this time was measured to confirm the cell viability.
(§2) Specifically, 100 μL of cell culture medium (RPMI medium, 10% FBS, 1% P/S, 4.5 g/L D-Glucose, 2.383 g/L HEPES Buffer, L-Glutamine, 1.5 g/L Sodium Bicarbonate, 110 mg/L Sodium pyruvate) was used and each cancer cell line was prepared in a white clear-bottom 96-well microplate. 10 μM of Fexuprazan and 1 μM of Doxorubicin were administered singly and in combination, respectively. As a comparative group, 10 μM of Vonoprazan was administered singly or in combination with Doxorubicin. At this time, 0.1% DMSO was used as a solvent for each composition. Further, 0.1% DMSO was used as a vehicle control. Each experimental group was repeated twice. Plates treated with the compound at respective concentrations were incubated in a 5% CO2 incubator at 37° C. for 48 hours. 100 μL/well of the substrate aqueous solution containing luciferin was added to a white clear-bottom 96 well microplate to initiate the enzymatic reaction. The reaction was performed at room temperature in a dark room for 10 minutes, and luminescence was measured using a Flexstation3 multi-mode microplate reader. The luciferase enzyme activity, representing the amount of ATP, was measured by a chemiluminescence method according to CellTiter-Glo® Luminescent Cell Viability instructions, and the inhibitory activity was calculated. The results of each compound were analyzed using Microsoft Excel. Compound concentrations were converted into logarithmic values using GraphPad Prism software and expressed on the graph.

Hs578T cell line = assay: CellTiter-Glo Luminescent Cell Viability, optimal molar ratio for combination use with Doxorubicin (Experimental Example 2); assay type: cell-based, human
Procedure: as §1
as §2, with “Further, 0.1% DMSO was used as a vehicle control. Each experimental group was repeated twice. Plates treated with the compound at respective concentrations were incubated in a 5% CO2 incubator at 37° C. for 48 hours. 100 μL/well of the substrate aqueous solution containing luciferin was added to a white clear-bottom 96 well microplate to initiate the enzymatic reaction.” left out, “Compound concentrations were converted into logarithmic values using GraphPad Prism software and expressed on the graph.” left out
In order to confirm the optimal combination ratio of Fexuprazan to Doxorubicin, cell proliferation was measured using a CellTiter-Glo® Luminescent Cell Viability (Promega, Catalog #G7571) method in the same manner as in Experimental Example 1. […] The cells were incubated in a 5% CO2 incubator at 37° C. for 48 hours, the luciferase enzyme activity, representing the amount of ATP, was measured by a chemiluminescence method according to CellTiter-Glo® Luminescent Cell Viability instructions, and the inhibitory activity of the compound according to this purpose was calculated. […]

[3] = Homo sapiens, Hs-578T, Doxorubicin 1.0 μM alone, 48 hours, read-out: Relative cell viability (%)
[4] = Homo sapiens, Hs-578T, 48 hours, read-out: Relative cell viability (%)

With CC(=O)O[C@@]12CO[C@@H]1C[C@H](O)[C@@]1(C)C(=O)[C@H](O)C3=C(C)[C@@H](OC(=O)[C@H](O)[C@@H](NC(=O)OC(C)(C)C)c4ccccc4)C[C@@](O)([C@@H](OC(=O)c4ccccc4)[C@H]21)C3(C)C [Docetaxel, docetaxel] the viability at 0.001 µM ([1]; Homo sapiens, Hs-578T, Docetaxel 1.0 nM alone, 48 hours, read-out: Relative cell viability (%)) was 88.3%, the viability at 0.01 µM ([1]; Homo sapiens, Hs-578T, Docetaxel 10.0 nM alone, 48 hours, read-out: Relative cell viability (%)) was 49.3% and the “synergistic effect on the antitumor effect relative to Esomeprazole” value ([1]; docetaxel 1 nM and 10 nM combined with 10 μM Fexuprazan, Table 3 and FIG. 4) was “synergistic effect”.
COc1cccc2c1C(=O)c1c(O)c3c(c(O)c1C2=O)C[C@@](O)(C(=O)CO)C[C@@H]3O[C@H]1C[C@H](N)[C@H](O)[C@H](C)O1 [Doxorubicin] gave a viability at 1 µM [2, 3] of 70.6% and a viability at 1 µM (Hs578T cell line; [3]) of 50%.
CNCc1cn(S(=O)(=O)c2cccc(F)c2)c(-c2ccc(F)cc2F)c1OC [Fexuprazan, 1-(5-(2,4-difluorophenyl)-1-((3-fluorophenyl)sulfonyl)-4-methoxy-1H-pyrrol-3-yl)-N-methylmethanamine] was tested, and the “antitumor effect in combination with Doxorubicin compared to administration alone / synergistic effect with Doxorubicin” value [2] was “superior antitumor effect”, the viability at 10 µM [2, 4] was 100% and the “synergistic effect with Doxorubicin, compared to the combined effect of Esomeprazole” value (Hs578T cell line; molar ratio of Doxorubicin and Fexuprazan 1:5 or more) was “synergistic effects”. For the same compound, the “synergistic effect with Doxorubicin, compared to the combined effect of Esomeprazole” value (Hs578T cell line; molar ratios of Doxorubicin and Fexuprazan 1:10 or more) was “especially superior”.
With CNCc1cc(-c2ccccc2F)n(S(=O)(=O)c2cccnc2)c1 [Vonoprazan] the “antitumor effect in combination with Doxorubicin compared to administration alone / synergistic effect with Doxorubicin” value [2] was “no synergistic effect” and the viability at 10 µM [2, 4] was 92.3%.
